System: xylene-induced ear edema in mice
Experiment: Xylene-induced ear edema in mice
Assay type: in vivo, Kunming mice
Details: for Degree of Edema: 30 μL xylene, 30 min, mean ± SD, n = 6; for Inhibition of ear swelling: xylene-induced ear edema
Protocol: To evaluate the differences in anti-inflammatory effects of the five compounds, the in vivo anti-inflammatory experiment was conducted based on the acute inflammation model of ear swelling induced by xylene. Under the inflammatory effect of 30 μL of xylene, the degree of ear swelling in the blank group and each experimental group was different. […] With an increase in dose the degree of ear swelling decreased, and the effect of ear swelling inhibition was more significant at high dose (100 mg/kg). Under the action of drugs, the five target compounds (1–5) have significant inhibitory effects on ear swelling (Figure 6).
Adult male Kunming mice (18–20 g) were bought from Liaoning Changsheng Biotechnology Co., Ltd. (Shenyang, China, License No. SCXK (Liao) 2015-0001). The breeding is carried out under standard conditions without pathogens (constant room temperature 20–22 °C, 55 ± 5% humidity, 12 h light–dark cycle and free access to food and water). The research protocol has been approved by the Animal Experiment Ethics Committee of the School of Pharmacy of Jilin University (20190048). All experimental operations follow the principles of laboratory animal care, and all animal experiments are conducted in accordance with the Guide for the Care and Use of Laboratory Animals (released by the National Research Council).
In this experiment, Kunming mice were randomly divided into two groups. One group was given 5% sodium carboxymethyl cellulose solution as the blank group, and the other group was given different concentrations of the target compound as the experimental group (high, medium and low doses); continuous intragastric administration was two days and the volume of intragastric administration was 0.2 mL. One hour after the last administration, 30 μL of xylene was evenly smeared on both sides of the mouse’s right ear. After 30 min, the mouse’s right ear was obviously red and swollen and the capillary congestion was severe. Cervical vertebrae were dislocated and sacrificed. The ears on both sides were quickly cut off, an 8 mm ear punch was used to punch holes at the same position on the ears on both sides and they were immediately weighed to calculate the weight difference.
The formula for the difference in ear weight is as follows:(2) D=Wr−Wl where Wr was the weight of the right ear and Wl was the weight of the left ear.
The formula for the inhibition rate of ear swelling is as follows:(3) Inhibition %=Dc−Dt/Dc×100% where Dc was the extent of ear edema of the control group and Dt was the extent of ear edema of the treatment group.

[1] = 25 mg/kg intragastric for two days
[2] = 50 mg/kg intragastric for two days
[3] = 100 mg/kg (high dose) intragastric
[4] = 100 mg/kg intragastric for two days

| Structure (SMILES) | Degree of Edema [1] [mg] | Inhibition of ear swelling (25 mg/kg intragastric) [%] | Degree of Edema [2] [mg] | Inhibition of ear swelling (50 mg/kg intragastric) [%] | Inhibition of ear swelling [3] [%] | Degree of Edema [4] [mg] |
| --- | --- | --- | --- | --- | --- | --- |
| CC(=O)Oc1ccc(/C=C/C(=O)N2C(=O)CN(C)C2=O)cc1 [Compound 4, (E)-4-(3-(3-methyl-2,5-dioxoimidazolidin-1-yl)-3-oxoprop-1-en-1-yl)phenyl acetate] | 11.03 ± 0.32 | 9.96 | 8.79 ± 0.76 | 28.24 | 40.16 | 7.33 ± 0.51 |
| CN1CC(=O)N(C(=O)/C=C/c2ccco2)C1=O [Compound 2, (E)-3-(3-(furan-2-yl)acryloyl)-1-methylimidazolidine-2,4-dione] | 8.68 ± 0.79 | 29.14 | 7.96 ± 0.23 | 35.02 | 49.47 | 6.19 ± 1.13 |

— PMC9737772, “Synthesis and Anti-Inflammatory Activity of 1-Methylhydantoin Cinnamoyl Imides” (Molecules, 2022)
